Bridge positions count the residues as written; N and C are the ends. Square brackets hold non-standard residues; d marks the D form. Peptide text beside a SMILES is read from it. Nle = CCCC[C@H](N)C(=O)O
Columns and labels:
Assay in all cases: cell-based
Kv1.6 = target: T1, Kv1.6 (Homo sapiens, UniProt P17658); details: for IC50: CHO cells, whole-cell patch clamp, read-out: Potency IC50 (nM) Kv1.6; for Selectivity Kv1.6/Kv1.3: ratio IC50[Kv1.6]/IC50[Kv1.3]
T1 construct: expressed in transfected cells; host or cells: Chinese Hamster Ovary (CHO)
T1 sequence (P17658 whole entry): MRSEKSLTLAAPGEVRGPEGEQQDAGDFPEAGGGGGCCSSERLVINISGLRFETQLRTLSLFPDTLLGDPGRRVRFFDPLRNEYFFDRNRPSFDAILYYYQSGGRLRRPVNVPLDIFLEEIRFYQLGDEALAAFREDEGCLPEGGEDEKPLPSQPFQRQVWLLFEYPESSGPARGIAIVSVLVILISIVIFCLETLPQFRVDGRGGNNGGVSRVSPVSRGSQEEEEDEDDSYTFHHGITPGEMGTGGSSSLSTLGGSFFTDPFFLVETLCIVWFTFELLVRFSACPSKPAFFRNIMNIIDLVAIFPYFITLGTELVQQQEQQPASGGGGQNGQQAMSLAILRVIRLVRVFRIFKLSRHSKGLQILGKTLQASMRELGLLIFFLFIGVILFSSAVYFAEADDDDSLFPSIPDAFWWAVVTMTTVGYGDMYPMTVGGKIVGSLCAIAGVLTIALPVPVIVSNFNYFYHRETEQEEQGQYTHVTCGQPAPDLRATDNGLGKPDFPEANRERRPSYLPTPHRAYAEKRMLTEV

[1] = target: T2, human Kv1.3 voltage-gated K+ channel (Homo sapiens, UniProt P22001); details: inhibition of thallium flux, CHO-DUKX cells with human Kv1.3; read-out: IC50
T2 construct: host or cells: CHO-DUKX
T2 sequence (P22001 whole entry): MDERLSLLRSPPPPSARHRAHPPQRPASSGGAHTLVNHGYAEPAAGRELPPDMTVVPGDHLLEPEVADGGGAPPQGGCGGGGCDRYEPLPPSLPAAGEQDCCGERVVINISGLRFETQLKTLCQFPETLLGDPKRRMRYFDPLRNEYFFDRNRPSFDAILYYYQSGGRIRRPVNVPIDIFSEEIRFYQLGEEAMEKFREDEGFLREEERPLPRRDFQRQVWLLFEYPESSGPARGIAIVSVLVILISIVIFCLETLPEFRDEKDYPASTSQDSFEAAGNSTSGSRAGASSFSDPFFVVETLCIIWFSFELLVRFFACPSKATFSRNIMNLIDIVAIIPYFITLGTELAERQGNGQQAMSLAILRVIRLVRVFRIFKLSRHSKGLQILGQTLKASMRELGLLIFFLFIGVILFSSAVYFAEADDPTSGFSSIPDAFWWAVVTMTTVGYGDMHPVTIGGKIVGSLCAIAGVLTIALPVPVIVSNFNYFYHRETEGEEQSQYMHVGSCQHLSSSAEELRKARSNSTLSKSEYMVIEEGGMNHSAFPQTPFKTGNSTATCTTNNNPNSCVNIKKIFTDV

Kv1.3 = target: T3, Kv1.3 (Homo sapiens, UniProt P22001); details: CHO cells, whole-cell patch clamp; read-out: Potency IC50 (nM) Kv1.3
T3 construct: expressed in transfected cells; host or cells: Chinese Hamster Ovary (CHO)
T3 sequence (P22001 whole entry): as above

Kv1.1 = target: T4, Kv1.1 (Homo sapiens, UniProt Q09470); details: for IC50: CHO cells, whole-cell patch clamp, read-out: Potency IC50 (nM) Kv1.1; for Selectivity Kv1.1/Kv1.3: ratio IC50[Kv1.1]/IC50[Kv1.3]
T4 construct: expressed in transfected cells; host or cells: Chinese Hamster Ovary (CHO)
T4 sequence (Q09470 whole entry): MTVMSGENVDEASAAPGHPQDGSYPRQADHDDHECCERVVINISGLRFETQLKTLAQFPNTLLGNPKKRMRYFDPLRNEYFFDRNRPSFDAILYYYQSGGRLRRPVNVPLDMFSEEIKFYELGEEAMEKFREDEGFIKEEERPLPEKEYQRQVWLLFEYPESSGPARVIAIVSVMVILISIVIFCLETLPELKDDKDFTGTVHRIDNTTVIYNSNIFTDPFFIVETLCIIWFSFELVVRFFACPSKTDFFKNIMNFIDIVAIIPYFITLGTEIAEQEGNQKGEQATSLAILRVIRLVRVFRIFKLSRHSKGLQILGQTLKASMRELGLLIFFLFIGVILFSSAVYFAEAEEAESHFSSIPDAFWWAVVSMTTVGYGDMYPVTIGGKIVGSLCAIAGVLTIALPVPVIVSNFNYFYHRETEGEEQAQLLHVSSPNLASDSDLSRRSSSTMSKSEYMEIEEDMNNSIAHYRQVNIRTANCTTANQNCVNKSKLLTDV

Kv1.2 = target: T5, Kv1.2 (Homo sapiens, UniProt P16389); details: CHO cells, whole-cell patch clamp; read-out: Potency IC50 (nM) Kv1.2
T5 construct: expressed in transfected cells; host or cells: Chinese Hamster Ovary (CHO)
T5 sequence (P16389 whole entry): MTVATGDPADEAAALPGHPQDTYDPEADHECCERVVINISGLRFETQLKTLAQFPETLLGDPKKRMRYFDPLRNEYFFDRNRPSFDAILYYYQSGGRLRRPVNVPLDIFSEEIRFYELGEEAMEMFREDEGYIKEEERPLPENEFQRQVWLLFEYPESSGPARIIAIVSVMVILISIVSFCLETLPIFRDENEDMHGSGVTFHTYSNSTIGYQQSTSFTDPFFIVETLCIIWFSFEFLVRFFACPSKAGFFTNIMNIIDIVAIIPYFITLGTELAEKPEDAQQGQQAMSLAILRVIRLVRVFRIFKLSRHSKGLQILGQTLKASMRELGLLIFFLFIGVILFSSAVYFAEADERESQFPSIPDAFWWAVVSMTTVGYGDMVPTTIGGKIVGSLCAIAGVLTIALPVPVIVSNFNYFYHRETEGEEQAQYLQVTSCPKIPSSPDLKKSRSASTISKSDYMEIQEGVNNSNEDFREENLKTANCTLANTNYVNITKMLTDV

Structure (SMILES)	IC50 (Kv1.6) [nM]	Selectivity Kv1.6/Kv1.3 (Kv1.6)	IC50 [1] [nM]	IC50 (Kv1.3) [nM]	IC50 (Kv1.1) [nM]	Selectivity Kv1.1/Kv1.3 (Kv1.1)	IC50 (Kv1.2) [nM]
CC[C@H](C)[C@@H]1NC(=O)[C@H](C)NC(=O)[C@H](CCCCN)NC(=O)[C@H](CC(C)C)NC(=O)[C@@H]2CSSC[C@@H](C(=O)N[C@@H](Cc3ccc(O)cc3)C(=O)N3CCC[C@H]3C(=O)N[C@@H](CCCNC(=N)N)C(N)=O)NC(=O)[C@H](CCCCN)NC(=O)[C@@H]3CSSC[C@H](NC(=O)[C@H](CCC(=O)O)NC(=O)[C@H](C(C)C)NC(=O)[C@H](CO)NC(=O)[C@H](C)NC(=O)[C@H](CO)NC(=O)[C@@H](NC(=O)[C@H](CCCNC(=N)N)NC(=O)[C@H](CCSC)NC(=O)[C@H](CC(=O)O)NC(=O)[C@H](CCSC)NC(=O)[C@@H](N)CC(N)=O)CSSC[C@H](NC(=O)[C@H](CCCCN)NC(=O)CNC(=O)[C@H](Cc4ccccc4)NC(=O)[C@H]([C@@H](C)CC)NC(=O)[C@H](CO)NC(=O)CNC1=O)C(=O)N[C@@H](CCSC)C(=O)N[C@@H](CC(N)=O)C(=O)NCC(=O)N[C@@H](CCCCN)C(=O)N3)C(=O)N[C@@H](CCCCN)C(=O)N[C@@H](CCC(N)=O)C(=O)N[C@@H](CCCCN)C(=O)N2 [Compound 36] (H-NMDMRCSASVECKQKCLKAIGSIFGKCMNGKCKCYPR-NH2; disulfide 6-27, 12-32, 16-34)	> 3000	>9700	0.24	0.31	> 3000	>9700	439
CCCC[C@@H]1NC(=O)[C@@H]2CSSC[C@H](NC(=O)[C@H](CCCNC(=N)N)NC(=O)[C@H](CCCC)NC(=O)[C@H](CC(=O)O)NC(=O)[C@H](CCCC)NC(=O)[C@@H](N)CC(N)=O)C(=O)N[C@@H](CO)C(=O)N[C@@H](C)C(=O)N[C@@H](CO)C(=O)N[C@@H](C(C)C)C(=O)N[C@@H](CCC(=O)O)C(=O)N[C@H]3CSSC[C@H](NC(=O)[C@H](CCCCN)NC(=O)[C@H](CCCCN)NC(=O)[C@H](CC(N)=O)NC1=O)C(=O)N[C@@H](CCCCN)C(=O)N[C@H](C(=O)N[C@@H](Cc1ccc(O)cc1)C(=O)N1CCC[C@H]1C(=O)N[C@@H](CCCNC(=N)N)C(N)=O)CSSC[C@H](NC(=O)[C@H](CCCCN)NC(=O)[C@H](CCC(N)=O)NC(=O)[C@H](CCCCN)NC3=O)C(=O)N[C@@H](CC(C)C)C(=O)N[C@@H](CCCCN)C(=O)N[C@@H](C)C(=O)N[C@@H]([C@@H](C)CC)C(=O)NCC(=O)N[C@@H](CO)C(=O)N[C@@H]([C@@H](C)CC)C(=O)N[C@@H](Cc1ccccc1)C(=O)NCC(=O)N[C@@H](CCCCN)C(=O)N2 [Compound 40] (H-N[Nle]D[Nle]RCSASVECKQKCLKAIGSIFGKC[Nle]NKKCKCYPR-NH2; disulfide 6-27, 12-32, 16-34)	1830		0.1	0.26	> 3000	>11600	113
CCCC[C@@H]1NC(=O)[C@@H]2CSSC[C@H](NC(=O)[C@H](CCCNC(=N)N)NC(=O)[C@H](CCCC)NC(=O)[C@H](CC(=O)O)NC(=O)[C@H](CCCC)NC(=O)[C@@H](N)CC(N)=O)C(=O)N[C@@H](CO)C(=O)N[C@@H](C)C(=O)N[C@@H](CO)C(=O)N[C@@H](C(C)C)C(=O)N[C@@H](CCC(=O)O)C(=O)N[C@H]3CSSC[C@H](NC(=O)[C@H](CCCCN)NC(=O)[C@H](CCCCN)NC(=O)[C@H](CC(N)=O)NC1=O)C(=O)N[C@@H](CCCCN)C(=O)N[C@H](C(=O)N[C@@H](Cc1ccc(O)cc1)C(=O)N1CCC[C@H]1C(=O)N[C@@H](CCCNC(=N)N)C(N)=O)CSSC[C@H](NC(=O)[C@H](CCCCN)NC(=O)[C@H](CCCCN)NC(=O)[C@H](CCCCN)NC3=O)C(=O)N[C@@H](CC(C)C)C(=O)N[C@@H](CCCCN)C(=O)N[C@@H](C)C(=O)N[C@@H]([C@@H](C)CC)C(=O)NCC(=O)N[C@@H](CO)C(=O)N[C@@H]([C@@H](C)CC)C(=O)N[C@@H](Cc1ccccc1)C(=O)NCC(=O)N[C@@H](CCCCN)C(=O)N2 [Compound 45] (H-N[Nle]D[Nle]RCSASVECKKKCLKAIGSIFGKC[Nle]NKKCKCYPR-NH2; disulfide 6-27, 12-32, 16-34)	> 3000	>4000	0.16	0.75	> 3000	>4000	257
CC[C@H](C)[C@@H]1NC(=O)[C@H](C)NC(=O)[C@H](CC(C)C)NC(=O)[C@@H]2CSSC[C@@H](C(=O)N[C@@H](Cc3ccc(O)cc3)C(=O)N3CCC[C@H]3C(=O)N[C@@H](CCCNC(=N)N)C(N)=O)NC(=O)[C@H](CCCCN)NC(=O)[C@@H]3CSSC[C@H](NC(=O)[C@H](CCC(=O)O)NC(=O)[C@H](C(C)C)NC(=O)[C@H](CO)NC(=O)[C@H](C)NC(=O)[C@H](CO)NC(=O)[C@@H](NC(=O)[C@H](CCCNC(=N)N)NC(=O)[C@H](CCSC)NC(=O)[C@H](CC(=O)O)NC(=O)[C@H](CCSC)NC(=O)[C@@H](N)CC(N)=O)CSSC[C@H](NC(=O)[C@H](CCCCN)NC(=O)CNC(=O)[C@H](Cc4ccccc4)NC(=O)[C@H]([C@@H](C)CC)NC(=O)[C@H](CO)NC(=O)CNC1=O)C(=O)N[C@@H](CCSC)C(=O)N[C@@H](CC(N)=O)C(=O)N[C@@H](CCCCN)C(=O)N[C@@H](CCCCN)C(=O)N3)C(=O)N[C@@H](CCCCN)C(=O)N[C@@H](CCC(N)=O)C(=O)N[C@@H](CCCCN)C(=O)N2 [Compound 54] (H-NMDMRCSASVECKQKCLAIGSIFGKCMNKKCKCYPR-NH2; disulfide 6-26, 12-31, 16-33)	> 3000	>1200	0.46	2.41	> 3000	>1200	291
CC[C@H](C)[C@@H]1NC(=O)[C@H](CCCNC(=N)N)NC(=O)[C@H](CCCCN)NC(=O)[C@H](CC(C)C)NC(=O)[C@@H]2CSSC[C@@H](C(=O)N[C@@H](Cc3ccc(O)cc3)C(=O)N3CCC[C@H]3C(=O)N[C@@H](CCCNC(=N)N)C(N)=O)NC(=O)[C@H](CCCCN)NC(=O)[C@@H]3CSSC[C@H](NC(=O)[C@H](CCC(=O)O)NC(=O)[C@H](C(C)C)NC(=O)[C@H](CO)NC(=O)[C@H](C)NC(=O)[C@H](CO)NC(=O)[C@@H](NC(=O)[C@H](CCCNC(=N)N)NC(=O)[C@H](CCSC)NC(=O)[C@H](CC(=O)O)NC(=O)[C@H](CCSC)NC(=O)[C@@H](N)CC(N)=O)CSSC[C@H](NC(=O)[C@H](CCCCN)NC(=O)CNC(=O)[C@H](Cc4ccccc4)NC(=O)[C@H]([C@@H](C)CC)NC(=O)[C@H](CO)NC(=O)CNC1=O)C(=O)N[C@@H](CCSC)C(=O)N[C@@H](CC(N)=O)C(=O)N[C@@H](CCCCN)C(=O)N[C@@H](CCCCN)C(=O)N3)C(=O)N[C@@H](CCCCN)C(=O)N[C@@H](CCC(N)=O)C(=O)N[C@@H](CCCCN)C(=O)N2 [Compound 56] (H-NMDMRCSASVECKQKCLKRIGSIFGKCMNKKCKCYPR-NH2; disulfide 6-27, 12-32, 16-34)	932		0.087	0.3	> 3000	>9900	57
CC[C@H](C)[C@@H]1NC(=O)[C@H](CO)NC(=O)CNC(=O)[C@H](Cc2ccc(O)cc2)NC(=O)[C@H](C)NC(=O)[C@H](CCCCN)NC(=O)[C@H](CC(C)C)NC(=O)[C@@H]2CSSC[C@@H](C(=O)N[C@@H](Cc3ccc(O)cc3)C(=O)N3CCC[C@H]3C(=O)N[C@@H](CCCNC(=N)N)C(N)=O)NC(=O)[C@H](CCCCN)NC(=O)[C@@H]3CSSC[C@H](NC(=O)[C@H](CCC(=O)O)NC(=O)[C@H](C(C)C)NC(=O)[C@H](CO)NC(=O)[C@H](C)NC(=O)[C@H](CO)NC(=O)[C@@H](NC(=O)[C@H](CCCNC(=N)N)NC(=O)[C@H](CCSC)NC(=O)[C@H](CC(=O)O)NC(=O)[C@H](CCSC)NC(=O)[C@@H](N)CC(N)=O)CSSC[C@H](NC(=O)[C@H](CCCCN)NC(=O)CNC(=O)[C@H](Cc4ccccc4)NC1=O)C(=O)N[C@@H](CCSC)C(=O)N[C@@H](CC(N)=O)C(=O)N[C@@H](CCCCN)C(=O)N[C@@H](CCCCN)C(=O)N3)C(=O)N[C@@H](CCCCN)C(=O)N[C@@H](CCC(N)=O)C(=O)N[C@@H](CCCCN)C(=O)N2 [Compound 58] (H-NMDMRCSASVECKQKCLKAYGSIFGKCMNKKCKCYPR-NH2; disulfide 6-27, 12-32, 16-34)	> 3000	>8800	0.11	0.34	> 3000	>8800	145
CCCC[C@H](NC(=O)[C@H](CC(=O)O)NC(=O)[C@H](CCCC)NC(=O)[C@@H](N)CO)C(=O)N[C@@H](CCCNC(=N)N)C(=O)N[C@H]1CSSC[C@@H]2NC(=O)[C@H](CCCCN)NC(=O)CNC(=O)[C@H](Cc3ccccc3)NC(=O)[C@H]([C@@H](C)CC)NC(=O)[C@H](CO)NC(=O)CNC(=O)[C@H]([C@@H](C)CC)NC(=O)[C@H](C)NC(=O)[C@H](CCCCN)NC(=O)[C@H](CC(C)C)NC(=O)[C@@H]3CSSC[C@@H](C(=O)N[C@@H](Cc4ccc(O)cc4)C(=O)N4CCC[C@H]4C(=O)N[C@@H](CCCNC(=N)N)C(N)=O)NC(=O)[C@H](CCCCN)NC(=O)[C@H](CSSC[C@H](NC(=O)[C@H](CCC(=O)O)NC(=O)[C@H](C(C)C)NC(=O)[C@H](CO)NC(=O)[C@H](C)NC(=O)[C@H](CO)NC1=O)C(=O)N[C@@H](C)C(=O)N[C@@H](CCC(N)=O)C(=O)N[C@@H](CO)C(=O)N3)NC(=O)[C@H](CCCCN)NC(=O)[C@H](CCCCN)NC(=O)[C@H](CC(N)=O)NC(=O)[C@H](CCSC)NC2=O [Compound 79] (H-S[Nle]D[Nle]RCSASVECAQSCLKAIGSIFGKCMNKKCKCYPR-NH2; disulfide 6-27, 12-32, 16-34)	> 3000	>14600	0.13	0.21	> 3000	>14600	1150

Reference: patent US11780893B2, “Kv1.3 blockers” (Zealand Pharma A/S, priority 2019, dated 2023)
